{"source": "patent US8802094B2", "about": "“Method of reducing phosphate absorption by administering orally an IgY anti-intestinal sodium phosphate cotransporter type 2B antibody” (Wisconsin Alumni Research Foundation, priority 2006, dated 2014)", "system": "chicken intestinal alkaline phosphatase", "test": "Feeding anti-intestinal alkaline phosphatase egg antibody to chicks with active vitamin D: plasma phosphorous", "assay_type": "in vivo, chicken (Single Comb White Leghorn chicks)", "settings": "leghorn chicks, 10 days", "protocol": "Single Comb White Leghorn laying hens were used for antibody production (3 hens per peptide antigen). Chicken intestinal alkaline phosphatase was purchased from Worthington. To prepare a vaccine for each hen 0.5 mg of chicken intestinal alkaline phosphatase was diluted to a final concentration of 0.5 ml PBS and mixed with 0.5 ml of Freund's complete adjuvant (first injection) or incomplete adjuvant (booster vaccination) to form a water in oil emulsification capable of holding a bead when dripped on ice water. The hen was then injected in four sites (each leg and each breast) with 0.25 ml of the vaccine emulsion intramuscularly. The booster injection in incomplete adjuvant occurred 7 days later.\nIn approximately 30 day lots, egg yolks from each hen were separated from whole eggs, mixed and lyophilized. Dried egg yolk powder containing the antibody was stored at room temperature until use in animal feeding studies.\nThe chicken model used in this study was described by Biehl and Baker, J. Nutr. 1997, 127:2054-2059 with the exception of antibodies to intestinal alkaline phosphatas. The negative control used in this study was a Pi deficient diet (Pi=inorganic phosphate which are largely mineral phosphates or phosphate from animal tissues and products such as milk and eggs), where the dietary phosphorous used was phytic phosphate. […]"}
{"compound": "C=C1/C(=C\\C=C2/CCC[C@]3(C)[C@@H]([C@H](C)CCCC(C)C)CC[C@@H]23)C[C@@H](O)C[C@@H]1O", "note": "[Active vitamin D, 1α-hydroxyvitamin D3]", "values": [{"measurement": "effect on plasma phosphorous levels (in words)", "setting": "Pi deficient diet, antibody vs active vitamin D alone, vitamin D vs negative control", "result": "increased blood phosphorous levels in comparison to the negative control"}, {"measurement": "Plasma phosphate", "setting": "Pi deficient phytic phosphorous diet, 1α-hydroxyvitamin D3 20 μg/kg diet alone or plus antibody 1 g/kg diet", "result": 6.70, "unit": "mg/dL"}]}
